Patent US9751869B2, “LXR modulators” (BRISTOL-MYERS SQUIBB COMPANY, priority 2013, dated 2017)

Target: T1, LXRβ (Homo sapiens, UniProt P55055)
T1 construct: Co-transfection expression plasmids, comprising full-length LXRα (pCMX-h LXRα or LXRβ (pCMX-hLXRβ)); expressed in transfected cells; host or cells: CV-1 African green monkey kidney cells, transient transfection with pCMX-hLXRβ
T1 sequence (P55055 1-460): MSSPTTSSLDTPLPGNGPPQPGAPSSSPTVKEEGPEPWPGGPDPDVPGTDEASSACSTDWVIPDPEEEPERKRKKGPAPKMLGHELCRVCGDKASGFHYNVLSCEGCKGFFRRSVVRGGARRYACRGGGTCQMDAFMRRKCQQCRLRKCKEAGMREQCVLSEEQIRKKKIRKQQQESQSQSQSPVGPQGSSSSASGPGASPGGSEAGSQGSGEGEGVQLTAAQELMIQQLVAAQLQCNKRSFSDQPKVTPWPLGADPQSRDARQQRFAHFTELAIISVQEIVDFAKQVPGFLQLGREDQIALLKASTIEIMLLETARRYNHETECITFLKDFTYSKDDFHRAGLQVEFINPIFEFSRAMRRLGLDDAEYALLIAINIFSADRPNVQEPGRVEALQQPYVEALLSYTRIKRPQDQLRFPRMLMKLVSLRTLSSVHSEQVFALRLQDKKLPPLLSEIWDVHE
T1 sequence (P19793 1-462 partner): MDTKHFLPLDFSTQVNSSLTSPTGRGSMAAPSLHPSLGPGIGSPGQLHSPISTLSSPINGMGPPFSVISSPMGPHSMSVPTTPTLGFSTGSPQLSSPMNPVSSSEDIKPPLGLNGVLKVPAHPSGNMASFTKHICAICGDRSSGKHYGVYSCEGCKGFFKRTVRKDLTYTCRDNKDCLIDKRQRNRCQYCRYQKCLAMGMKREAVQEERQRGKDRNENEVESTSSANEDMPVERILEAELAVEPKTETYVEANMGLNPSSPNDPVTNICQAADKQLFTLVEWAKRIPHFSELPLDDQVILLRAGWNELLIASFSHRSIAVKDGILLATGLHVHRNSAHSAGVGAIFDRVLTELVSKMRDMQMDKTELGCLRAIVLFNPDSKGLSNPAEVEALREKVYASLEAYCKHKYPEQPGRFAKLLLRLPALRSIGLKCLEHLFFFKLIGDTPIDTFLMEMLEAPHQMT
Test: LXR/LXRE co-transfection assay (luciferase reporter) in CV-1 cells, LXRβ
Format: cell-based
Conditions: for EC50: CV-1 cells transfected with pCMX-hLXRβ and LXREx1-Tk-Luciferase, 20 hours incubation, read-out: LXRbeta agonism EC50; for Emax: CV-1 cells, relative to maximum response of high control N-(3-((4-fluorophenyl)-(naphthalene-2-sulfonyl)amino)propyl)-2,2-dimethylpropionamide, read-out: LXRbeta % EFFICACY
Method in brief: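 CV-1 cells transiently co-transfected with full-length human LXRβ, LXRE-Tk-luciferase reporter and β-galactosidase control, then exposed to compound (≤0.5% DMSO) for 20 h at 37 °C before luminescence read. EC50 from 10-point, half-log dose curves; efficacy relative to the sulfonamide high control, means of 2–3 experiments.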

Structure (SMILES) | EC50 | Emax
Cc1nc(-c2ccc(OC(F)(F)F)cc2)c(-c2cc(-c3cc(F)c(CO)c(S(C)(=O)=O)c3)ccc2-n2ccc(C(C)(C)C#N)n2)o1 [Example 377, 2-(1-(3′-fluoro-4′-(hydroxymethyl)-3-(2-methyl-4-(4-(trifluoromethoxy)phenyl)oxazol-5-yl)-5′-(methylsulfonyl)-[1,1′-biphenyl]-4-yl)-1H-pyrazol-3-yl)-2-methylpropanenitrile] | 28 nM | 23%
Cc1nc(-c2ccc3c(c2)OC(F)(F)O3)c(-c2cc(-c3cccc(S(C)(=O)=O)c3)ccc2-c2cc(C(=O)NCC(F)(F)F)nn2C)o1 [Example 111, 5-(3-(4-(2,2-difluorobenzo[d][1,3]dioxol-5-yl)-2-methyloxazol-5-yl)-3′-(methylsulfonyl)-[1,1′-biphenyl]-4-yl)-1-methyl-N-(2,2,2-trifluoroethyl)-1H-pyrazole-3-carboxamide] | 284 nM | 51%
Cc1nc(-c2ccc(OC(F)F)cc2)c(-c2cc(-c3ccc(CO)c(S(C)(=O)=O)c3)ccc2-n2nc(C(F)(F)F)cc2C)o1 [Example 326, (3′-(4-(4-(difluoromethoxy)phenyl)-2-methyloxazol-5-yl)-4′-(5-methyl-3-(trifluoromethyl)-1H-pyrazol-1-yl)-3-(methylsulfonyl)biphenyl-4-yl)methanol] | 15 nM | 77%
Cc1nc(-c2cc(-c3cc(F)c(CO)c(S(C)(=O)=O)c3)ccc2-n2nc(C(F)(F)F)cc2C)c(-c2ccc3c(c2)OC(F)(F)O3)o1 [Example 389, (3′-(5-(2,2-difluorobenzo[d][1,3]dioxol-5-yl)-2-methyloxazol-4-yl)-3-fluoro-4′-(5-methyl-3-(trifluoromethyl)-1H-pyrazol-1-yl)-5-(methylsulfonyl)biphenyl-4-yl)methanol] | 7 nM | 84%
Cc1nc(-c2ccc3c(c2)OC(F)(F)O3)c(-c2cc(-c3cc(F)c(CO)c(S(C)(=O)=O)c3)ccc2-c2cc(CC(C)(C)O)nn2C)o1 [Example 120, 1-(5-(3-(4-(2,2-difluorobenzo[d][1,3]dioxol-5-yl)-2-methyloxazol-5-yl)-3′-fluoro-4′-(hydroxymethyl)-5′-(methylsulfonyl)-[1,1′-biphenyl]-4-yl)-1-methyl-1H-pyrazol-3-yl)-2-methylpropan-2-ol] | 46 nM | 32%
Cc1nc(-c2ccc(OC(F)(F)F)cc2)c(-c2cc(-c3cc(F)c(CO)c(S(C)(=O)=O)c3)ccc2-n2cc(C(N)=O)c(C3CC3)n2)o1 [Example 448, 3-cyclopropyl-1-(3′-fluoro-4′-(hydroxymethyl)-3-(2-methyl-4-(4-(trifluoromethoxy)phenyl)oxazol-5-yl)-5′-(methylsulfonyl)-[1,1′-biphenyl]-4-yl)-1H-pyrazole-4-carboxamide] | 279 nM | 30%
Cc1nc(-c2ccc(OC(F)F)c(F)c2)c(-c2cc(-c3cc(F)c(CO)c(S(C)(=O)=O)c3)ccc2-c2cc(C(F)(F)C(=O)N(C)C)nn2C)o1 [Example 79, 2-(5-(3-(4-(4-(difluoromethoxy)-3-fluorophenyl)-2-methyloxazol-5-yl)-3′-fluoro-4′-(hydroxymethyl)-5′-(methylsulfonyl)biphenyl-4-yl)-1-methyl-1H-pyrazol-3-yl)-2,2-difluoro-N,N-dimethylacetamide] | 17 nM | 87%
Cc1nc(-c2cc(-c3cc(F)c(CO)c(S(C)(=O)=O)c3)ccc2-n2ccc(C(F)(F)F)n2)c(-c2ccc(OC(F)F)nc2)o1 [Example 395, (3′-(5-(6-(difluoromethoxy)pyridin-3-yl)-2-methyloxazol-4-yl)-3-fluoro-5-(methylsulfonyl)-4′-(3-(trifluoromethyl)-1H-pyrazol-1-yl)biphenyl-4-yl)methanol] | 11 nM | 83%
Cc1nc(-c2ccc(OC(F)(F)F)cc2)c(-c2cc(-c3cccc(S(C)(=O)=O)c3)ccc2-n2cc(Cl)c(C(C)(C)O)n2)o1 [Example 441, 2-(4-chloro-1-(3-(2-methyl-4-(4-(trifluoromethoxy)phenyl)oxazol-5-yl)-3′-(methylsulfonyl)-[1,1′-biphenyl]-4-yl)-1H-pyrazol-3-yl) propan-2-ol] | 176 nM | 31%

The remaining compounds from weak to strong by EC50, led by results:

EC50 | Emax | Structure (SMILES)
3050 nM | 27% | Cc1nc(-c2cc(-c3cccc(S(C)(=O)=O)c3)ccc2-n2ccc(C(N)=O)n2)c(-c2ccc(OC(F)(F)F)cc2)o1 [Example 416]
1430 nM | 66% | Cn1nc(C(F)(F)C(C)(C)O)cc1-c1ccc(-c2cccc(S(C)(=O)=O)c2)cc1-n1nncc1-c1ccc2c(c1)OC(F)(F)O2 [Example 33, 1-(5-(3-(5-(2,2-difluorobenzo[d][1,3]dioxol-5-yl)-1H-1,2,3-triazol-1-yl)-3′-(methylsulfonyl)-[1,1′-biphenyl]-4-yl)-1-methyl-1H-pyrazol-3-yl)-1,1-difluoro-2-methylpropan-2-ol]
1230 nM | 80% | Cn1nc(C(F)(F)CNCCO)cc1-c1ccc(-c2cccc(S(C)(=O)=O)c2)cc1-n1nncc1-c1ccc(OC(F)(F)F)cc1 [Example 29, 2-((2,2-difluoro-2-(1-methyl-5-(3′-(methylsulfonyl)-3-(5-(4-(trifluoromethoxy)phenyl)-1H-1,2,3-triazol-1-yl)-[1,1′-biphenyl]-4-yl)-1H-pyrazol-3-yl)ethyl)amino)ethanol]
1130 nM | 60% | CN(C)C(=O)c1cc(-c2ccc(-c3cccc(S(C)(=O)=O)c3)cc2-n2nncc2-c2ccc(OC(F)(F)F)cc2)n(C)n1 [Example 38, N,N,1-trimethyl-5-[3′-(methylsulfonyl)-3-(5-{4-[(trifluoromethyl)oxy]phenyl}-1H-1,2,3-triazol-1-yl)biphenyl-4-yl]-1H-pyrazole-3-carboxamide]
377 nM | 66% | Cn1nc(C(F)(F)C(C)(C)O)cc1-c1ccc(-c2cccc(S(C)(=O)=O)c2)cc1-n1nncc1-c1ccc(OC(F)(F)F)cc1 [Example 7, 1,1-difluoro-2-methyl-1-(1-methyl-5-(3′-(methylsulfonyl)-3-(5-(4-(trifluoromethoxy)phenyl)-1H-1,2,3-triazol-1-yl)biphenyl-4-yl)-1H-pyrazol-3-yl)propan-2-ol]
170 nM | 63% | CNS(=O)(=O)c1cccc(-c2ccc(-n3cc(Cl)c(C(F)(F)F)n3)c(-c3oc(C)nc3-c3cnc(OC)nc3)c2)c1 [Example 445, 4′-(4-chloro-3-(trifluoromethyl)-1H-pyrazol-1-yl)-3′-(4-(2-methoxypyrimidin-5-yl)-2-methyloxazol-5-yl)-N-methyl-[1,1′-biphenyl]-3-sulfonamide]
105 nM | 38% | Cc1nc(-c2ccc3c(c2)OC(F)(F)O3)c(-c2cc(-c3cc(F)c(CO)c(S(C)(=O)=O)c3)ccc2-c2cc(C(C)(C)O)nn2C)o1 [Example 92, 2-(5-(3-(4-(2,2-difluorobenzo[d][1,3]dioxol-5-yl)-2-methyloxazol-5-yl)-3′-fluoro-4′-(hydroxymethyl)-5′-(methylsulfonyl)biphenyl-4-yl)-1-methyl-1H-pyrazol-3-yl)propan-2-ol]
92 nM | 80% | Cc1nc(-c2cc(-c3cccc(S(C)(=O)=O)c3)ccc2-n2ccc(C(F)(F)F)n2)c(-c2ccc(OC(F)(F)F)cc2)o1 [Example 414, 2-methyl-4-(3′-(methylsulfonyl)-4-(3-(trifluoromethyl)-1H-pyrazol-1-yl)biphenyl-3-yl)-5-(4-(trifluoromethoxy)phenyl)oxazole]
87 nM | 48% | Cc1nc(-c2ccc3c(c2)OC(F)(F)O3)c(-c2cc(-c3cccc(S(C)(=O)=O)c3)ccc2-c2cc(C(C)OC(N)=O)nn2C)o1 (centres unmarked) [Example 129, 1-(5-(3-(4-(2,2-difluorobenzo[d][1,3]dioxol-5-yl)-2-methyloxazol-5-yl)-3′-(methylsulfonyl)-[1,1′-biphenyl]-4-yl)-1-methyl-1H-pyrazol-3-yl)ethyl carbamate]
30 nM | 72% | Cc1nc(-c2cc(-c3cc(F)c(CO)c(S(C)(=O)=O)c3)ccc2-c2cc(C(C)(C)CO)nn2C)c(-c2ccc3c(c2)OC(F)(F)O3)o1 [Example 62, 2-(5-(3-(5-(2,2-difluorobenzo[d][1,3]dioxol-5-yl)-2-methyloxazol-4-yl)-3′-fluoro-4′-(hydroxymethyl)-5′-(methylsulfonyl)biphenyl-4-yl)-1-methyl-1H-pyrazol-3-yl)-2-methylpropan-1-ol]
